Assay results published in US12582652B2, “3-(ethoxydifluoromethyl)-6-(5-fluoro-6-(2,2,2-trifluoroethoxy)pyridin-3-yl)-[1,2,4]triazolo[4,3-a]pyrazine as an ion channel modulator” (Praxis Precision Medicines, Inc., priority 2022, dated 2026).
Entries after “also recorded” stand apart in the source; their conditions may differ.

Tests used:
[1] = target: T1, human NaV1.6 (Homo sapiens, UniProt Q9UQD0); experiment: ATX-II activated late (persistent) INa block, PatchXpress patch clamp; type: cell-based
T1 construct: stably expressing either human NaV1.6 (NP_055006); expressed in transfected cells
T1 sequence (Q9UQD0 whole entry): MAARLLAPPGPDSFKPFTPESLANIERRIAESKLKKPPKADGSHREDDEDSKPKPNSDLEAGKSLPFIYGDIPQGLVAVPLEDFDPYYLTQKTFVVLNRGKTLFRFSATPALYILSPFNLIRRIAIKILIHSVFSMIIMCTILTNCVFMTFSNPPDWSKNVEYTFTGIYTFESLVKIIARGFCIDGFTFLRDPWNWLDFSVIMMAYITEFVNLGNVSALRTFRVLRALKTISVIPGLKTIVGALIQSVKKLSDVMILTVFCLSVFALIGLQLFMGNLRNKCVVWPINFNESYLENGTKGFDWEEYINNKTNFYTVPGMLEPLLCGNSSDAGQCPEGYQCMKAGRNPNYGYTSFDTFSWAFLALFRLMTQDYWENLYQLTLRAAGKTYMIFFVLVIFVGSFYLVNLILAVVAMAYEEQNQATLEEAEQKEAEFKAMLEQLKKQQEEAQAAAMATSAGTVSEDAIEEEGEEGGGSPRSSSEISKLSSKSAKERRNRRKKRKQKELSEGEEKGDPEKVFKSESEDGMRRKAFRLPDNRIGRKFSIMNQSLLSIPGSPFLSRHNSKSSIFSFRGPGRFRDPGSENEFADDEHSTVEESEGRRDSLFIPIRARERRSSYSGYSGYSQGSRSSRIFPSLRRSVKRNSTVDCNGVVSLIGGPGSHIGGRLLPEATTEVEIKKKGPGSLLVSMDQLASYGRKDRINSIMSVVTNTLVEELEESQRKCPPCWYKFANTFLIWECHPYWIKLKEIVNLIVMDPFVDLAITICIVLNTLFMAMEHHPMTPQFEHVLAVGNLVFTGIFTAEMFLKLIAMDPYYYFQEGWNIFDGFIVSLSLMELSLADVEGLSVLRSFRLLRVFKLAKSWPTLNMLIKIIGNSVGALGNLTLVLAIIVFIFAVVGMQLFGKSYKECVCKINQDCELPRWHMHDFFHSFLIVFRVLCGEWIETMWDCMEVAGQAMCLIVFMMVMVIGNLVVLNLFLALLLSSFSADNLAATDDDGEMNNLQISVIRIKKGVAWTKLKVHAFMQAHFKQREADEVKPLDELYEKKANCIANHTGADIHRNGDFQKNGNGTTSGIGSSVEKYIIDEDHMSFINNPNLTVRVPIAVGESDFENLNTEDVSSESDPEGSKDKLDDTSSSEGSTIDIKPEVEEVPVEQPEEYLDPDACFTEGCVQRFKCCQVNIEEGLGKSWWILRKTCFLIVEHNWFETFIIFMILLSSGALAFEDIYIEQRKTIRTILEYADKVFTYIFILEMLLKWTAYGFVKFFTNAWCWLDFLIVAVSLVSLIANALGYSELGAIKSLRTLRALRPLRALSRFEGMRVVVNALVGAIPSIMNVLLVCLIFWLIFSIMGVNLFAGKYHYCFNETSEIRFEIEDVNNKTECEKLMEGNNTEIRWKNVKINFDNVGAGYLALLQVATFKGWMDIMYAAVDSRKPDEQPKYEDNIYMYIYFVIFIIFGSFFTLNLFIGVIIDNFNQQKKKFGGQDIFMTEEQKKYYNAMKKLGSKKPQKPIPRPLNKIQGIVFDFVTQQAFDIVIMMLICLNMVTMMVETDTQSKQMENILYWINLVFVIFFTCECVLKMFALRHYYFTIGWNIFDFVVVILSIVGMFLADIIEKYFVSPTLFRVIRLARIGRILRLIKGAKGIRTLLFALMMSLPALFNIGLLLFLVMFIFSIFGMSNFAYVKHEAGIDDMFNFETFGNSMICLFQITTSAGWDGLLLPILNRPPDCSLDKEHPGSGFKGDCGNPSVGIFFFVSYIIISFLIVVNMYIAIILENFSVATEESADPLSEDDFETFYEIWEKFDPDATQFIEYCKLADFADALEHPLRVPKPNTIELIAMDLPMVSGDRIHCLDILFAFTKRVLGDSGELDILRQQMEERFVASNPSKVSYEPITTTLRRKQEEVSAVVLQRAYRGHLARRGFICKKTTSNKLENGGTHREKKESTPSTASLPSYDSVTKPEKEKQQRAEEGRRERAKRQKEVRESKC
Protocol: HEK-293 cell lines stably expressing either human NaV1.6 (NP_055006), mouse NaV1.6 (NP_035453.2), or rat NaV1.6 (NP_062139) were used. All cells were seeded at 2×10^6 cells per Nunc T75 flask for 2 days in culture. At time of harvest for assays, the cell counts were approximately 6×10^6 cells. Cells were washed (1×) in DPBS (Hyclone, Cat #SH30028.03) for approximately 30 seconds. 1 mL of 1×0.05% Trypsin-EDTA (GIBCO Cat #25300-054) was added and swirled around to cover the bottom of the flask and was allowed to sit on the cells for approximately 4 minutes (±90% of the cells were lifted by light tapping of the flask). 10 mL of warmed media (DMEM high glucose media Hyclone, SH30022.02 supplemented with 10% Fetal Bovine Serum, 2 mM Sodium Pyruvate, 10 mM HEPES and 400 μg/mL G418) was added to inactivate the trypsin. Cells were triturated until a single cell suspension was achieved. A cell count was performed and cells were aliquoted into a 250 ml centrifuge tube at a concentration of 2×10^5/mL in +30 ml of prewarmed media. The 250 mL centrifuge tube was placed on a rocker in an incubator set at 28° C. and gently rocked for approximately 1 hour to allow cells to recover. Cell aliquots of 5 mL (1×10^6 cells) were placed in a 15 mL centrifuge tube and spun at 100×g for 2 minutes. Supernatant was removed leaving a cell pellet. 100 μL of external recording solution was added to the pellet and triturated 20 times to achieve a single cell suspension and then transferred to a 1.5 mL tube for placement in the PatchXpress® (Molecular Devices).
Compound 1 was provided as powder and prepared as 10 mM DMSO stocks in 1 dram glass vials prior to assay. Immediately prior to assay, Compound 1 was diluted with DMSO to 300×, the designated final assay concentration. Assay dilutions (1× concentration) were prepared by pipetting 3 μL of diluted Compound 1 into 897 μL of extracellular solution in a 1 mL glass shell vial. Vials were capped and vortexed until initiation of the PatchXpress® (Molecular Devices) recording protocol.
The same intracellular recording solution was used for the persistent and peak INa assays, which contained: 135 mM CsF, 10 mM CsCl, 5 mM NaCl, 10 mM HEPES, 5 mM EGTA at a pH of 7.4 (adjusted with CsOH) and a measured osmolarity of 298 mOsm (adjusted with mannitol). For the persistent INa assay, the external recording solution contained: 135 mM NaCl, 5.4 mM KCl, 5 mM glucose, 2 mM CaCl2), 1 mM MgCl2, 10 mM HEPES, and 200 nM ATX-II (sea anemone toxin, Alomone Labs; Jerusalem, Israel) at a pH of 7.4 (adjusted with NaOH) and a measured osmolarity of 300 mOsm (adjusted with mannitol). For the peak INa assays, the external recording solution contained: 100 mM NaCl, 35 mM NMDG, 5.4 mM KCl, 5 mM glucose, 2 mM CaCl2), 1 mM MgCl2, and 10 mM HEPES at a pH of 7.4 (adjusted with NaOH) and a measured osmolarity of 300 mOsm (adjusted with mannitol).
All studies were performed using the PatchXpress® (Molecular Devices) automated patch clamp platform (Molecular Devices) using the whole cell configuration. Recordings were performed at room temperature. Data were collected using Patch Commander software (Molecular Devices) and processed using DataXpress 2.0 (Molecular Devices). Cell acceptance criteria were continuously monitored by custom scripts during the recording. Acceptance criteria for all assays were: baseline peak INa>800 pA, Rseal>200 MΩ, and, where appropriate, persistent INa>100 pA. Compensation was 50% and leak subtraction was not used. Currents were filtered at 5 kHz and digitized at 32.5 kHz. Raccess and Rseal were monitored throughout the recording and cells with Raccess>10 MΩ or Rseal<200 MΩ were terminated automatically by script.
Late (persistent) current Block: The inhibition of ATX-II activated late current was measured using a 200 ms voltage step to 0 mV. Protocols used low stimulation rates (about 0.1 Hz) and negative potentials (−120 mV) to keep channels in closed (resting) states.

[2] = system: Scn2a^Q54 transgenic mice; experiment: Spontaneous seizure frequency in Scn2aQ54 mouse model of elevated persistent sodium current; type: in vivo
Description: Scn2a^Q54 transgenic mice were generated as described and are maintained as a congenic line on the C57BL/6J (Jax #000664) background (B6.Q54) (Kearney et al., 2001; PMID 11166117). For experiments, F1 generation mice were produced by crossing B6.Q54 hemizygous transgenic males with SJL/J (Jax #000686) females and genotyping for the Scn2a^Q54 transgene. Experimental animals used in this study were male and female postnatal day 18-21 (P18-21) mice, with the majority being P19-P20.
Dosing solutions were freshly formulated on the morning on the study. Dosing solution contained 0.5% methylcellulose with 0.2% Tween-80 was made with 1 mL 10% Tween-80 (in ddH20) and 49 mL 0.5% methylcellulose (in ddH20) either with or without (vehicle) Compound 1 (0.3 mg/kg, 1 mg/kg, 3 mg/kg, or 10 mg/kg). Each animal received a single administration of vehicle or Compound 1 by oral gavage.
For seizure monitoring, two mice were placed into a monitoring cage (23 cm×13 cm) and two side-view cameras were placed to record baseline spontaneous seizure activity. […] After the 30-minute recording, mice were administered Compound 1 or vehicle and returned to their home cage. After 30 minutes, the two mice were returned to the monitoring cage and recorded for an additional 30 minutes to assess post-treatment seizure activity. The number of focal motor seizures with forelimb clonus and repetitive movements lasting 1-5 seconds, and generalized tonic-clonic seizures (GTCS) with rearing and falling lasting approximately 1 minute were counted. Seizures were scored offline by an observer blinded to treatment and pre/post status of the video file.
The numbers of seizures before and after treatment were counted for each animal by a reviewer blinded to treatment and pre/post status of the video record. Mice that had less than three seizures or more than 35 seizures during the baseline period were excluded from the analysis as pre-defined in the study design. Statistical analysis was conducted using two-way repeated measures ANOVA and Sidak's multiple comparisons, with p<0.05 considered statistically significant (GraphPad Prism 8.4). Change in average seizure frequency was determined by averaging each group and then computing relative change as [(avg. post−avg. pre)/avg. pre], expressed as a percentage.

[3] = target: T1, human NaV1.6; experiment: Peak INa use-dependent block (UDB-10 Hz), PatchXpress patch clamp; type: cell-based
[4] = Preliminary exposure data from first 12 participants (Example 9 study); type: in vivo, human

## CCOC(F)(F)c1nnc2cnc(-c3cnc(OCC(F)(F)F)c(F)c3)cn12 [Compound 1, 3-(ethoxydifluoromethyl)-6-(5-fluoro-6-(2,2,2-trifluoroethoxy)pyridin-3-yl)-[1,2,4]triazolo[4,3-a]pyrazine]
[1]; hNaV1.6, ATX-II-evoked, holding −120 mV
  IC50: 141 nM
[1]; hNaV1.6, all assay conditions
  preference for persistent INa relative to peak INa: preference for persistent INa
[2]; 10 mg/kg
  mice showing seizures after dosing: no mice showing any seizures
[2]; 1, 3 and 10 mg/kg p.o., 30 min after treatment
  seizure frequency compared to pre-treatment baseline: significant reduction
[2]; Scn2a Q54 DEE mouse model
  protection from spontaneous seizures (FIG. 14A): completely block seizures
[2]; doses of 1 mg/kg and above
  reduction in seizure frequency: 50%
[3]; hNaV1.6
  Ratio to Peak INa (TB) (UDB-10 Hz): 31
  Ratio to Pers. INa (Peak INa UDB-10 Hz / persistent INa): 2
[3]; hNaV1.6, 10 Hz
  IC50: 271 nM
  Peak INa UDB-10 Hz maximum inhibition: 75%
  use-dependent block at stimulation frequency of 10 Hz: concentration dependent inhibition
[3]; hNaV1.6, 10 Hz, 30 Hz or 50 Hz
  use-dependent block at increased frequencies: significantly greater compared with CBZ
[4]
  Compound 1 exposures on Day 1 (after single dose): above therapeutic range; also recorded: above predicted therapeutic levels
  exposure after 28 days of once daily dosing and auto-titration: approaching steady-state; also recorded: approaches steady state
